{
  "source": "paper PMC4336141",
  "about": "“Repurposing Auranofin as a Lead Candidate for Treatment of Lymphatic Filariasis and Onchocerciasis” (PLoS Neglected Tropical Diseases, 2015)",
  "key": {"adult female O. ochengi": {"system": "adult female O. ochengi", "test": "Adult female Onchocerca ochengi viability, MTT/formazan assay in vitro", "type": "cell-based", "details": "Day 7, MTT/formazan", "description": "Cows that had grazed in northern Cameroon where O. ochengi is highly endemic were brought to abattoirs located in Douala, Cameroon. Subcutaneous nodules containing adult O. ochengi worms were identified on the umbilical skin of infected cows. Adult worm masses containing one viable, adult female and zero to several adult males were carefully recovered by dissection of the nodule with a sterile razor blade. The masses were then incubated in 4 mL of complete culture medium (CCM), which was comprised of RPMI-1640 (Sigma-Aldrich), 5% newborn calf serum, 200 units/mL penicillin, 200 μg/mL streptomycin and 2.5 μg/mL amphotericin B (Sigma-Aldrich), in standard 12-well culture plates. […] Adult female worm viability was assessed on day 7 by the standard MTT/formazan assay in which each nodular mass was placed in a well of a 48-well microtiter plate containing 500 μL of 0.5 mg/mL MTT (Sigma-Aldrich) in incomplete culture medium, and then incubated in the dark at 37°C for 30 minutes. Adult female worm viability was evaluated visually by the extent to which the female worm mass was stained with MTT. Mean percent inhibition of formazan formation was calculated relative to the negative control worm masses after 7 days in culture. […]"}, "adult female B. pahangi": {"system": "adult female B. pahangi", "test": "Transmission electron microscopy of treated adult female B. pahangi", "type": "cell-based, Brugia pahangi", "details": "auranofin 1 μM, 0.3 μM or 0.1 μM overnight, vs 1% DMSO", "description": "Adult female B. pahangi worms were incubated with either 1 μM, 0.3 μM, or 0.1 μM auranofin, 10 μM flubendazole (as a positive control), or 1% DMSO overnight, then cut into 3 segments separating the anterior, middle and posterior sections. The middle sections were further cut into 1 mm sized pieces in fixative (2.5% glutaraldehyde and 2% paraformaldehyde in 0.1 M sodium cacodylate buffer, pH 7.3–7.4) and stored at 4°C. Middle sections were subsequently treated with 1% tannic acid for 1 hour, followed by three buffer washes before post fixation staining with 2% osmium tetroxide for 1 hour. The samples were washed three times in buffer before dehydration in an ethanol series. Worm sections were then infiltrated with propylene oxide, embedded in epon 812 resin and polymerized in a vacuum oven at 60°C overnight. Ultrathin sections were cut using an RMC MTX ultramicrotome with a Diatome diamond knife followed by post staining of the grids with saturated ethanolic uranyl acetate and Reynolds lead citrate. Samples were imaged on a FEI Tecnai 12 spirit TEM operated at 80 kV. A similar procedure was performed on adult female O. ochengi worm masses that were cultured for 7 days with 10 μM auranofin before fixation of cut pieces of the adult female mass. Untreated adult female masses cultured for 7 days and fixed by the same procedure served as the control."}},
  "note": "Entries after “also recorded” stand apart in the source; their conditions may differ.",
  "data": [
    {"smiles": "CC[PH](CC)(CC)[Au][S][C@@H]1O[C@H](COC(C)=O)[C@@H](OC(C)=O)[C@H](OC(C)=O)[C@H]1OC(C)=O", "note": "[auranofin, 2,3,4,6-tetra-O-acetyl-1-thio-beta-D-glucopyranosato-S (triethylphosphine) gold]", "values": [
      {"measurement": "IC50", "setting": "adult female O. ochengi", "value": 300, "unit": "nM"},
      {"measurement": "ultrastructure (TEM) of adult female B. pahangi", "setting": "adult female B. pahangi", "value": "considerable damage in the hypodermal region; also recorded: extensive damage to Wolbachia in the hypodermal area"}
    ]}
  ]
}
